Square brackets hold non-standard residues; d marks the D form. Peptide text beside a SMILES is read from it. * marks the point of attachment. Sta = CC(C)C[C@H](N)[C@@H](O)CC(=O)O; Isovaleryl = CC(C)CC(=O)*

plasmepsin II, sequence (P46925 125-453): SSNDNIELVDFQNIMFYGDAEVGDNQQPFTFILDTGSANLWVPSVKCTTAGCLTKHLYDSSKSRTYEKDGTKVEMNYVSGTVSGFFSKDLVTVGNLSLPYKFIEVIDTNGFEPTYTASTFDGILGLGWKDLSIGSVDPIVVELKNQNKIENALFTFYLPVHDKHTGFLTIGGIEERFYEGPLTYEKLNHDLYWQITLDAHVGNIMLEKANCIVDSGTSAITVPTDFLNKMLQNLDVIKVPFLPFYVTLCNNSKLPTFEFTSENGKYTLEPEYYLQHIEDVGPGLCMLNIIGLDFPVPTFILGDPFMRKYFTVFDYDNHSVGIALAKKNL

One assay has as its system P. falciparum.
Test: not given
The conditions noted are these: cited from earlier work.
As for `CC(C)CC(=O)N[C@H](C(=O)N[C@H](C(=O)N[C@@H](CC(C)C)[C@@H](O)CC(=O)N[C@@H](C)C(=O)N[C@@H](CC(C)C)[C@@H](O)CC(=O)O)C(C)C)C(C)C` [Pepstatin] (Isovaleryl-VV[Sta]A[Sta]-OH), the “growth of P. falciparum in red blood cells in vitro” value is on record as “inhibits the growth”.

Another assay has as its target plasmepsin II (Plasmodium falciparum, UniProt P46925). In words: biochemical. The conditions noted are these: Additional Examples table; FRET, pH 5, 37° C., 40 min, substrate 1 μM; read-out: IC50 (nM) on plasmepsin II.
Regarding `CCCCCc1ccc(C(=O)N(Cc2ccc(-c3cccc(OC(F)(F)F)c3)cc2)C2CCN(Cc3ccccc3)CC2)cc1` [Example 113, N-(1-Benzylpiperidin-4-yl)-4-pentyl-N-(3′-trifluoromethoxy-biphenyl-4-ylmethyl)benzamide], the IC50 stood at 816 nM.

In the case of `CCCCCc1ccc(C(=O)N(Cc2ccc(OCc3ccccc3)cc2)[C@@H]2CCN(Cc3ccccc3)C2)cc1` [Example 114, N-(4-Benzyloxybenzyl)-N-((3R)-1-benzylpyrrolidin-3-yl)-4-pentyl-benzamide], the IC50 amounted to 817 nM.

For `CCCCCc1ccc(C(=O)N(Cc2ccc(N(CCCC)CCCC)cc2)C2CCN(Cc3ccccc3)CC2)cc1` [Example 115, N-(1-Benzylpiperidin-4-yl)-N-(4-dibutylaminobenzyl)-4-pentyl-benzamide], the IC50 turned out to be 839 nM.

Consider `CCCCCc1ccc(C(=O)N(Cc2ccc(O)cc2)C2CCN(Cc3ccccc3)CC2)cc1` [Example 116, N-(1-Benzylpiperidin-4-yl)-N-(4-hydroxybenzyl)-4-pentyl-benzamide], for which the IC50 amounted to 882 nM.

As for `CCCCCC(=Cc1ccccc1)CN(C(=O)c1ccc(CCCCC)cc1)C1CCN(Cc2ccccc2)CC1` [Example 117, N-(1-Benzylpiperidin-4-yl)-4-pentyl-N-(2-pentyl-3-phenylallyl)benzamide], the concentration for half-maximal inhibition (IC50) is 933 nM.

For `CCCCCC12CCC(C(=O)N(Cc3ccc(-c4ccccc4)cc3)C3CCN(Cc4ccccc4)CC3)(CC1)CC2` [Example 118, 4-Pentylbicyclo[2.2.2]octane-1-carboxylic acid(1-benzylpiperidin-4-yl)-biphenyl-4-ylmethylamide], the IC50 is 942 nM.

With `CCCCCc1ccc(C(=O)N(Cc2ccc(-c3cccnc3)cc2)C2CCN(Cc3ccc(O)cc3)CC2)cc1` [N-[1-(4-Hydroxybenzyl)piperidin-4-yl]-4-pentyl-N-(4-pyridin-3-yl-benzyl)benzamide], the IC50 was determined as 105 nM.

The values are drawn from patent publication US20040102431A1, “Substituted amino-aza-cycloalkanes useful against malaria” (priority 2000, published 2004).
